Columns and labels:
[1] = Amount of antimycotic in the nail after topical application of the lacquer compositions, HPLC after extraction of distal nail material; assay type: in vivo, human
Method: The amount of antimycotic in the nail after application of the compositions according to the invention was determined by HPLC measurements after extraction of distal nail material obtained on cutting the nails of volunteers.
After treatment 2× a week for 6 weeks, the values found for the composition of Example 3 were as follows:
After treatment 2× a week for 2 weeks, the values found for the composition of Example 4 were as follows: […]

[2] = oral administration of 100 mg of itraconazole each day for 3 months; cited from earlier work
[3] = composition of Example 3, topical, treatment 2x a week for 6 weeks, distal nail material of volunteers

Row | SMILES | amount of antimycotic in the nail [1, 3] | amount of antimycotic in the nail ([1]; composition of Example 4, topical, treatment 2x a week for 2 weeks, distal nail material of volunteers) | amount of antimycotic in the nail ([1]; human, in vivo, 2 weeks) | itraconazole concentration in the distal nail plate [2]
1 | Cc1cc(C2CCCCC2)n(O)c(=O)c1 [ciclopirox, 6-cyclohexyl-1-hydroxy-4-methyl-2(1H)-pyridone] | 140 μg/g of nail | 92 μg/g of nail | – | –
2 | OC(Cn1cncn1)(Cn1cncn1)c1ccc(F)cc1F [fluconazole, α-(2,4-difluorophenyl)-α-(1H-1,2,4-triazol-1-ylmethyl)-1H-1,2,4-triazol-1-ethanol] | – | – | 17 μg/g of nail | –
3 | CCC(C)n1ncn(-c2ccc(N3CCN(c4ccc(OCC5COC(Cn6cncn6)(c6ccc(Cl)cc6Cl)O5)cc4)CC3)cc2)c1=O (centres unmarked) [itraconazole] | 800 ng/g of nail | – | – | 100 ng/g of nail

Reference: US20010046478A1, “Antiinfective combinations and their use for the topical treatment of fungal infections of the toenails and fingernails” (priority 2000, published 2001)
